Key:
Conditions in all cases: biotinylated peptide 0 to 200 µg.mL, streptavidin-HRP detection
BBI = tested on: BBI
Procedure: (§1) The C-terminus was elongated with a GGGS-CONH2 tail to mimic the GGGS-peptide spacer between the random peptide sequence and the phage protein pIII and to block the negative charge of the carboxyl terminus. […] All synthetic peptides were reconstituted in sterile deionised H2O to a concentration of 2 mg/mL. The ability of biotinylated synthetic peptides (from 0 to 200 µg.mL) to bind to the immobilized purified Bowman-Birk inhibitor, soy pulp and soy whey extracts (and BSA as a negative control) was analyzed in solid phase assays. In this case, the biotinylated synthetic peptides were incubated on BBI coated wells (100 µg.mL) and detected using a streptavidin-HRP conjugate (1:500). Binding and absorbance readings are finally carried out using the TMB substrate as described before.

soy whey = tested on: soy whey
Procedure: as §1

soy pulp = tested on: soy pulp
Procedure: as §1

GAMHLPWHMGTLGGGS-1,2-diaminoethane-biotin [peptide 1]
Dose-dependent binding: binding to BBI (BBI) | binding to soy whey (soy whey) | binding to soy pulp (soy pulp)

From EP2604624A1, “Bowman-Birk protease Inhibitor (BBI) binding peptides, and uses thereof in the separation, detection or purification of BBI” (University College Dublin National University Of Ireland, …, priority 2011, dated 2013)
